PubChem BioAssay AID1963851 (Molecular Pharmacology Branch, DTP, NCI, 2024)
Values joined by “and” are separate entries in the source; they are usually repeats but may differ in a detail not shown here. Equal values may be shown once.

System: 188146-221-R-J1-PDC complex spheroid viability
Test: Anticancer human tumor 188146-221-R-J1-PDC patient-derived colon adenocarcinoma cell line growth inhibition [POLQ]
Conditions: for viability, T/C: stronger effect = lower value
Description: Multicellular complex tumor spheroid response to Polymerase (POL) inhibitors (novobiocin, ART-558, RP6685) in combination with a variety of drugs and investigational agents in selected tumor cell lines
The POL inhibitors (novobiocin, ART-558, and RP6685) were evaluated both individually and in combination with standard of care and investigational anticancer small molecules within a complex spheroid model of solid tumors. . Complex spheroids include a stromal component modeled by human endothelial cells (HUVEC) and fibroblasts modeled by human mesenchymal stem cells (MSCs). The concentration ranges selected for each drug and investigational agent were based upon clinically achievable concentrations if the clinical Cmax of the agent was known.
Compounds. The drugs and investigational agents: novobiocin (NSC847541), ART-558 (NSC835418), RP-6685 (NSC848927), peposertib (NSC802822), ceralasertib (NSC780249), elimusertib (NSC800525), camonsertib (NSC841442), AZD-1390 (NSC803789), olaparib (NSC753686), talazoparib (NSC767125), rucaparib (NSC756644), sotorasib (NSC818433), MRTX-1133 (NSC836407), SN-38 (NSC673596), topotecan (NSC609699), epotoside (NSC141540), doxorubicin (NSC123127), gemcitabine (NSC613327), 5-fluorouracil (NSC19893), paclitaxel (NSC125973), vemurafenib (NSC761431), MSA-2 (NSC828583), SN-011 (NSC837082), adavosertib (NSC754352), prexasertib (NSC758257), carboplatin (NSC241240) and oxaliplatin (NSC266046), were obtained from the National Cancer Institute (NCI) Developmental Therapeutics Program Chemical Repository (21). The FDA-approved anticancer drug set is available from the Developmental Therapeutics Program at https://dtp.cancer.gov/organization/dscb/obtaining/. […] The stock solutions were prepared in dimethyl sulfoxide (DMSO, Sigma-Aldrich, St. Louis, MO, cat. D2650), except for the platinum compounds which were prepared in saline (Quality Biological, Gaithersburg, MD, cat. 114-055-101), at 800-fold the tested concentration and stored at -70 degrees C prior to their use. All drugs and investigational agents were tested over a range starting from a high concentration at or near the clinical Cmax and decreasing in half-log increments. If the clinical Cmax for an agent had not been determined, the highest concentration tested was 10 microM, except for SN-38, which was tested at a high concentration of 1 microM.
Cell Culture. All cells were maintained in an incubator at 37 degrees C and 5% CO2 with 95% humidity. The PDC lines were cultured according to standard operating procedures established by the NCI PDMR (https://pdmr.cancer.gov). Table 3 of the manuscript, lists the cell lines along with the number of the three cell types plated to form the mct-spheroids and media for tumor cell growth. After thawing, all PDC lines, except 997537-175-T-J1-PDC and 415267-285-R-J2-PDC, were cultured in Matrigel-coated flasks prepared with a working solution of 1X Ham's F-12 nutrient mix, without supplementation (Thermo Fisher Scientific, cat. 11765054), 100 U/mL penicillin-streptomycin (Thermo Fisher Scientific, cat. 15140122), and 2.5% Matrigel (Corning Inc., Corning, NY, cat. 354248) for the first three passages. The two PDC lines 997537-175-T-J1-PDC and 415267-285-R-J2-PDC were cultured on uncoated flasks. The 857933-349-R-J2-PDC line was cultured in 6C/Colon 1B media containing advanced DMEM/F-12 (Thermo Fisher Scientific, cat. 12634028), 10 mM HEPES (Thermo Fisher Scientific, cat. 15630080), 1X GlutaMAX supplement (Thermo Fisher Scientific, cat. 35050061), 0.1 mg/mL primocin (InvivoGen, San Diego, CA, cat. ant-pm-2), 10% defined fetal bovine serum, heat inactivated (HyClone Laboratories Inc., Logan, UT, cat. SH30070.03HI), 50% L-WRN conditioned media (ATCC, cat. CRL-3276), 1.25 mM N-Acetyl-L-cysteine (Sigma-Aldrich, cat. A9165), 10 mM nicotinamide (Sigma-Aldrich, cat. N0636), 1X B-27 supplement (Thermo Fisher Scientific, cat. 17504044), 1X N-2 supplement (Thermo Fisher Scientific, cat. […]
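Further: spheroids exposed to compounds for seven days.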
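Wherever viability, T/C is given: 100% = DMSO vehicle control viability.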

## COc1cc(C2c3cc4c(cc3C(OC3OC5COC(C)OC5C(O)C3O)C3COC(=O)C23)OCO4)cc(OC)c1O (configuration not stated)
Compound 0.0316 µM
  viability, T/C: 115% and 92.4% and 98.7%
Compound 0.1 µM
  viability, T/C: 102% and 84.8% and 107%
Compound 0.316 µM
  viability, T/C: 77% and 71.8% and 65.6%
Compound 1 µM
  viability, T/C: 51.8% and 43.3% and 50.5%
Compound 3.16 µM
  viability, T/C: 30.1% and 27.2% and 24.4%
Compound 10 µM
  viability, T/C: 23.1% and 24.8% and 25%
Curve of compound
  IC50: 1030 nM and 758 nM and 789 nM

## CCc1cc2c(N3CCc4c(cc(Cn5ccnc5)cc4-c4cn(C)nc4C(F)(F)F)C3=O)ccnc2c(OC)n1
Compound 0.0316 µM
  viability, T/C: 103% and 102% and 97.4%
Compound 0.1 µM
  viability, T/C: 100% and 84.5% and 101%
Compound 0.316 µM
  viability, T/C: 100% and 99.4% and 92.2%
Compound 1 µM
  viability, T/C: 92.7% and 93.4% and 98.2%
Compound 3.16 µM
  viability, T/C: 69.5% and 74% and 71.6%
Compound 10 µM
  viability, T/C: 48.1% and 54.2% and 57.5%
Curve of compound
  IC50: 9010 nM and > 10000 nM

## O=C(c1cc(Cc2n[nH]c(=O)c3ccccc23)ccc1F)N1CCN(C(=O)C2CC2)CC1
Compound 0.0316 µM
  viability, T/C: 95.8% and 103% and 101%
Compound 0.1 µM
  viability, T/C: 105% and 101% and 97%
Compound 0.316 µM
  viability, T/C: 89.8% and 97.6% and 92.6%
Compound 1 µM
  viability, T/C: 90.3% and 81.9% and 108%
Compound 3.16 µM
  viability, T/C: 104% and 95.4% and 97.6%
Compound 10 µM
  viability, T/C: 73.3% and 74% and 74.6%
Curve of compound
  IC50: > 10000 nM

## Nc1ccn(C2OC(CO)C(O)C2(F)F)c(=O)n1 (configuration not stated) + COC1C(OC(N)=O)C(O)C(Oc2ccc3c(O)c(NC(=O)c4ccc(O)c(CC=C(C)C)c4)c(=O)oc3c2C)OC1(C)C
Curve of first compound, second compound 0.0316 µM
  IC50: < 31.6 nM
Curve of first compound, second compound 0.1 µM
  IC50: 32.1 nM
Curve of first compound, second compound 0.316 µM
  IC50: < 31.6 nM
Curve of first compound, second compound 1 µM
  IC50: < 31.6 nM
Curve of first compound, second compound 3.16 µM
  IC50: < 31.6 nM
Curve of first compound, second compound 10 µM
  IC50: < 31.6 nM
Second compound 0.0316 µM, first compound 0.0316 µM
  viability, T/C: 46.8%
Second compound 0.0316 µM, first compound 0.1 µM
  viability, T/C: 29.5%
Second compound 0.0316 µM, first compound 0.316 µM
  viability, T/C: 17.4%
Second compound 0.0316 µM, first compound 1 µM
  viability, T/C: 14.4%
Second compound 0.0316 µM, first compound 3.16 µM
  viability, T/C: 15.2%
Second compound 0.0316 µM, first compound 10 µM
  viability, T/C: 13.2%
Second compound 0.1 µM, first compound 0.0316 µM
  viability, T/C: 50.4%
Second compound 0.1 µM, first compound 0.1 µM
  viability, T/C: 29.4%
Second compound 0.1 µM, first compound 0.316 µM
  viability, T/C: 13.8%
Second compound 0.1 µM, first compound 1 µM
  viability, T/C: 12.5%
Second compound 0.1 µM, first compound 3.16 µM
  viability, T/C: 14.8%
Second compound 0.1 µM, first compound 10 µM
  viability, T/C: 14.3%
Second compound 0.316 µM, first compound 0.0316 µM
  viability, T/C: 41.1%
Second compound 0.316 µM, first compound 0.1 µM
  viability, T/C: 28.7%
Second compound 0.316 µM, first compound 0.316 µM
  viability, T/C: 21.8%
Second compound 0.316 µM, first compound 1 µM
  viability, T/C: 12.2%
Second compound 0.316 µM, first compound 3.16 µM
  viability, T/C: 12%
Second compound 0.316 µM, first compound 10 µM
  viability, T/C: 11%
Second compound 1 µM, first compound 0.0316 µM
  viability, T/C: 41.5%
Second compound 1 µM, first compound 0.1 µM
  viability, T/C: 24.8%
Second compound 1 µM, first compound 0.316 µM
  viability, T/C: 19.2%
Second compound 1 µM, first compound 1 µM
  viability, T/C: 13.4%
Second compound 1 µM, first compound 3.16 µM
  viability, T/C: 13.5%
Second compound 1 µM, first compound 10 µM
  viability, T/C: 12.6%
Second compound 3.16 µM, first compound 0.0316 µM
  viability, T/C: 46.3%
Second compound 3.16 µM, first compound 0.1 µM
  viability, T/C: 26.1%
Second compound 3.16 µM, first compound 0.316 µM
  viability, T/C: 16.2%
Second compound 3.16 µM, first compound 1 µM
  viability, T/C: 13.5%
Second compound 3.16 µM, first compound 3.16 µM
  viability, T/C: 14%
Second compound 3.16 µM, first compound 10 µM
  viability, T/C: 13.9%
Second compound 10 µM, first compound 0.0316 µM
  viability, T/C: 45.6%
Second compound 10 µM, first compound 0.1 µM
  viability, T/C: 20.5%
Second compound 10 µM, first compound 0.316 µM
  viability, T/C: 16.1%
Second compound 10 µM, first compound 1 µM
  viability, T/C: 12.4%
Second compound 10 µM, first compound 3.16 µM
  viability, T/C: 16.4%
Second compound 10 µM, first compound 10 µM
  viability, T/C: 13.3%

## C#Cc1c(F)ccc2cc(O)cc(-c3ncc4c(N5CC6CCC(C5)N6)nc(OCC56CCCN5CC(F)C6)nc4c3F)c12 (configuration not stated)
Compound 0.0316 µM
  viability, T/C: 100% and 103% and 99.2%
Compound 0.1 µM
  viability, T/C: 97.1% and 105% and 99.9%
Compound 0.316 µM
  viability, T/C: 90.5% and 81.7% and 89.8%
Compound 1 µM
  viability, T/C: 96.4% and 100% (2×)
Compound 3.16 µM
  viability, T/C: 98.2% and 99.9% and 104%
Compound 10 µM
  viability, T/C: 89.1% and 102% and 85.3%
Curve of compound
  IC50: > 10000 nM

## O=c1[nH]cc(F)c(=O)[nH]1
Compound 0.0316 µM
  viability, T/C: 102% and 101% and 107%
Compound 0.1 µM
  viability, T/C: 95.6% and 97.8% and 103%
Compound 0.316 µM
  viability, T/C: 66.6% and 74% and 69.3%
Compound 1 µM
  viability, T/C: 59.6% and 61.5% and 58.3%
Compound 3.16 µM
  viability, T/C: 44.9% and 51.3% and 45.6%
Compound 10 µM
  viability, T/C: 31.6% and 43.5% and 31.8%
Curve of compound
  IC50: 1830 nM and 3020 nM and 1680 nM
